Nine molecules from patent US8846012B2, “Melanin production inhibitor” (Pola Chemical Industries Inc., priority 2008, dated 2014) can be followed below.

Converted amounts (≈) assume the structure as drawn. Where two headings read alike, the source gives them in different places.

One assay relates to normal human melanocytes. The assay is described as follows: Melanin production inhibition test using cultured normal human melanocytes (14C-thiouracil incorporation). Format: cell-based. The following applies: Homo sapiens, Melanocyte; for activity at 5 µM: addition amount 5.0 μM; for activity at 20 µM: treatment concentration 20 μM; for activity at 15 µM: treatment concentration 15 μM. How it is done: The inhibitory effect on melanin production of the melanin production inhibitor of the present invention can be measured using thiouracil which is incorporated specifically into cells in a melanin synthesis process in the cells. For example, the amount of melanin production can be measured by measuring an amount of thiouracil incorporated into cells by measuring an amount of radiation with radiolabeled thiouracil.
The inhibitory effect on melanin production of Compound 1 was evaluated using 2-thiouracil (^14C-labeled 2-thiouracil was used in this test) which is incorporated specifically into melanin in an intracellular melanin synthesis process. Complete medium for culture of melanocytes (manufactured by Kurabo Industries Ltd.) was added to 15 wells in a 24-well plate in an amount of 2 mL per well, and normal human melanocytes (manufactured by Kurabo Industries Ltd.) were seeded into the wells at a concentration of 1.5×10^4 cells/cm^2. The cells were cultured in a 5% carbon dioxide atmosphere at 37° C. for 24 hours. Thereafter, the medium in all the wells was exchanged under the following conditions: fresh complete medium for culture of melanocytes (control) was used in three wells; each of complete medium for culture of melanocytes, which including Compound 1 at concentrations of 1.0 μM, 2.0 μM, and 4.0 μM, was used in a total of nine wells including three wells for each concentration; and complete medium for culture of melanocytes, each of which including arbutin (positive control) known as a melanin production inhibitor at a concentration of 0.5 mM (500 μM), was used in the other three wells. Further, 2-[2-^14C]thiouracil (^14C-labeled thiouracil) was added to each of these 15 wells at 0.25×10^−6 Ci (curie). Then, the cells were cultured for further 3 days under the same conditions as the above. After the completion of culture, the culture medium was removed from the wells, and the cells were washed with phosphate buffered physiological saline (PBS) and then separated from the bottoms of the wells with medium including trypsin and EDTA to prepare cell suspensions, followed by centrifugation to collect the cells. The number of the cells was counted using a hemocytometer. Thereafter, the amounts of ^14C-thiouracil in the cells collected from each well (0.25×10^−6 Ci) were measured using a liquid scintillation counter (ALOKA CO., LTD.). The percentages of an amount of radioactivity in the cells cultured in the medium including the test substances with respect to an amount of radioactivity in the cells collected from the well of the control were calculated as amounts of melanin (%). That is, as the amount of radioactivity incorporated into the cells is smaller, the amount of melanin is evaluated to be smaller, i.e., the melanin inhibition effect of the component added is evaluated to be larger.
Inhibitory effects on melanin production of Compounds 2 to 39 (however, the effects of Compound 9 and 15 were not measured) were examined in the same procedure as in Test Example 1.
These were examined in the same procedure as in Test Example 1.
Further, the results of melanin production inhibition by treatment with the respective test compounds, determined in the same procedure as in Test Example 1, are also shown in the table.

In assay [1] the test system is ultraviolet ray-induced pigmentation. Description: Ultraviolet ray-induced pigmentation inhibition test using pigmented guinea pigs. The following applies: for ΔL* value: 1% (w/v) in ethanol, 30 μL once a day for 6 weeks, L* day 57 minus L* day 15, mean ± SD of eight animals; for inhibition of pigmentation induced by ultraviolet rays (in words): applied to the skin at a concentration of 1%. The format is in vivo. The source says:
The hair of the dorsal skin of each of eight pigmented guinea pigs was removed and shaved using an electrical hair clipper and shaver, and each of the sites was covered with a black cloth having a total of four (two on the top and bottom and two on the right and left) irradiation windows with a size of 2×2 cm, and then irradiated with ultraviolet rays of 300 mJ/cm^2 using FL20S•E30 lamp as a light source. This operation was repeated on days 1, 3, 5, 8, 10, and 12 after the start of the test to induce pigmentation on the four test sites.
Compound 2, Compound 3, and Compound 4 were dissolved in ethanol at a concentration of 1% (w/v) to prepare samples for application. Further, as a control, ethanol was used alone as a sample for application.
On day 15 of the test, application of the samples was started. The respective samples were applied to the predetermined test sites once a day in an amount of 30 μL, and the application was continued for 6 weeks (until day 56 of the test).
On the day of the start of application (day 15 of the test) and after the completion of application for 6 weeks (on day 57 of the test), the skin brightness (L* value) of each of the test sites was measured using a colorimeter (CR-200, Konica Minolta Holdings, Inc.), and a ΔL* value was calculated by subtracting an L* value on day 15 of the test from an L* value on day 57 of the test. […] As degree of the pigmentation becomes stronger, the L* value becomes smaller. Therefore, it can be evaluated that, as the ΔL* value becomes larger, pigmentation is more inhibited.

Assay [2] relates to Trichopyton mentagrophytes (ATCC18748). Description: Measurement of antimycotic activity (Alamar Blue growth inhibition of dermatophytes). The format is cell-based. The following applies: for growth inhibitory effect on Trichopyton mentagrophytes (in words): added at a concentration of 100 μg/mL; for MIC80: read-out: MIC80 Concentration. The procedure:
10.4 g of RPMI1640 (manufactured by SAFC Biosciences) were dissolved in 900 mL of distilled water, and 34.53 g of a 0.165 M MOPS buffer (manufactured by DOJINDO LABORATORIES) were added and dissolved by stirring.
Dermatophytes (Trichopyton mentagrophytes (ATCC18748)) were inoculated into a 1/10 Sabouraud Dextrose agar medium (manufactured by DIFCO) and cultured at 28° C. for 14 days, and then a conidial suspension was prepared using 0.1% Tween80-including physiological saline. The suspension was filtered through gauze, and the number of the conidia was counted using a hemocytometer and then adjusted to 2.5×10^5/mL with the RPMI1640 medium. The resultant suspension was used as an inoculum.
Compound 5 and clotrimazole were diluted with the RPMI1640 medium to prepare 0.3125, 0.625, 1.25, 2.5, 5, 10, 20, and 200 μg/mL diluted solutions. The diluted solutions having different concentrations were dispensed into a 96-well flat-bottom microplate in an amount of 100 μL per well, and 80 μL of the inoculum and 20 μL of an Alamar Blue solution (manufactured by Nalgene) were further added thereto. Further, 80 μL of the inoculum and 20 μL of the Alamar Blue solution were added to 100 μL of the RPMI1640 medium in growth control wells, and 20 μL of the Alamar Blue solution was added to 180 μL of the RPMI1640 medium in negative control wells. The microplate was placed in a chamber in which the humidity was kept constant, and culture was started at 27° C., and the cells were observed every 24 hours. 120 hours from beginning of culture, i.e., when the growth control became obviously red (reduced form), absorbance measurement at 570 nm was performed using a microplate reader (SPECTRAMAX 250, manufactured by Molecular Device).
The test compounds were tested at the respective concentrations in triplicate. The growth inhibition rate (%) of each of the test compound-added groups was determined by the following equation based on a value calculated by subtracting an average absorbance value of the negative control from an average absorbance value of the growth control and the test compound-added wells. Further, […] (minimum inhibitory concentration; the minimum concentration at which the growth inhibition rate is 80% or more) was calculated from the growth inhibition rate of each test compound. Growth inhibition rate (%)=[1−(average absorbance value in test compound-added wells-average absorbance value of negative control)/(average absorbance value of growth control-average absorbance value of negative control)]×100
Compound 1, Compounds 3 to 6, Compound 40, Compound 41, triphenylmethylamine, triphenylmethanol, triphenylmethane, aminodiphenylmethane, and clotrimazole were diluted with the RPMI1640 medium to prepare 0.3125, 0.625, 1.25, 2.5, 5, 10, 20, and 200 μg/mL diluted solutions. The diluted solutions having different concentrations were dispensed into a 96-well flat-bottom microplate in an amount of 100 μl, per well, and 80 μL of the inoculum and 20 μl, of an Alamar Blue solution (manufactured by Nalgene) were further added thereto. Further, 80 μl, of the inoculum and 20 μl, of the Alamar Blue solution were added to 100 μL of the RPMI1640 medium in growth control wells, and 20 μL of the Alamar Blue solution was added to 180 μL of the RPMI1640 medium in negative control wells. The microplate was placed in a chamber in which the humidity was kept constant, and then culture was started at 27° C., and the cells were observed every 24 hours. 120 hours from beginning of culture, i.e., when the growth control became obviously red (reduced form), absorbance measurement at 570 nm was performed using a microplate reader (SPECTRAMAX 250, manufactured by Molecular Device).
The test compounds were tested at the respective concentrations in triplicate. […]
(In general: Alamar Blue is a resazurin reagent that responds to reducing activity.)

Setting [3] is: minimum concentration at which the growth inhibition rate is 80% or more.
Setting [4] is: Table 7, read-out: Amount of melanin.

In the assay on normal human melanocytes (Table 2, control = 100%), `OCCOC(c1ccccc1)(c1ccccc1)c1ccccc1` [Compound 2, 2-(triphenylmethyloxy)ethanol] had an activity at 5 µM of 44 ± 3.2%. In assay [1], the “ΔL* value” turned out to be 3.9 ± 0.94 and the “inhibition of pigmentation induced by ultraviolet rays (in words)” value (from here on “inhibition of pigmentation induced”) was “obviously inhibited pigmentation induced by ultraviolet rays”.

As for `OCCNC(c1ccccc1)(c1ccccc1)c1ccccc1` [Compound 3, 2-(triphenylmethylamino)ethanol], the activity at 5 µM in the assay with normal human melanocytes (Table 2, control = 100%) turned out to be 51.6 ± 4.2%. Moreover, the activity at 10 µM with normal human melanocytes (Table 7, treatment concentration 10 μM, read-out: Amount of melanin) was 22.3 ± 0.63%. Moreover, in assay [2], the “growth inhibitory effect on Trichopyton mentagrophytes (in words)” value (“growth inhibitory effect” for short) is “no growth inhibitory effect”. The MIC80 in assay [2] (setting [3]) was > 100 µg/mL. In assay [1], the “ΔL* value” stood at 3.9 ± 0.52 and the “inhibition of pigmentation induced” value is “obviously inhibited pigmentation induced by ultraviolet rays”.

`NCCOC(c1ccccc1)(c1ccccc1)c1ccccc1` [Compound 4, 2-(triphenylmethyloxy)ethylamine]: in the assay on normal human melanocytes (Table 7, treatment concentration 2 μM, read-out: Amount of melanin), the activity at 2 µM is 34.2 ± 3.58%. For the same molecule, in the assay on normal human melanocytes (Table 2, addition amount 2.0 μM, control = 100%), the activity at 2 µM came to 33.8 ± 0.8%. Besides, in assay [2] (setting [3]), the “MIC80 Concentration” value came to 100.0000 µg/mL (≈ 330 µM) and the MIC80 was 100 µg/mL (≈ 330 µM). In addition, in assay [1], the “ΔL* value” was determined as 3.4 ± 0.8 and the “inhibition of pigmentation induced” value was “obviously inhibited pigmentation induced by ultraviolet rays”.

Molecule `Cc1ccc(C(O)c2ccc(C)cc2)cc1` [Compound 14, [bis(4-methylphenyl)]methanol] came in with an activity at 25 µM in the assay on normal human melanocytes (Table 2, addition amount 25 μM, control = 100%) of 44.6 ± 5.6%. For the same molecule, the activity at 40 µM in the assay on normal human melanocytes (Table 7, treatment concentration 40 μM, read-out: Amount of melanin) was found to be 37.9 ± 1.39%. In addition, in assay [2] (setting [3]), the “MIC80 Concentration” value was 100.0000 µg/mL (≈ 471 µM) and the MIC80 is 100 µg/mL (≈ 471 µM).

As for `c1ccc(C(c2ccccc2)(c2ccncc2)n2ccnc2)cc1` [Compound 40, 1-[(diphenylpyridyl)methyl]imidazole], the activity at 20 µM in the assay on normal human melanocytes (setting [4]) is 44.7 ± 4.2%. The MIC80 in assay [2] (setting [3]) was found to be 10 µg/mL (≈ 32.1 µM).

With `Cc1ccc(C(c2ccc(C)cc2)n2ccnc2)cc1` [Compound 41], the activity at 15 µM in the assay on normal human melanocytes (setting [4]) amounted to 34.1 ± 2.58%. Also, in assay [2] (setting [3]), the MIC80 came to 5 µg/mL (≈ 19.1 µM).

As for `c1ccc(C(c2ccccc2)c2ccccc2)cc1` [Triphenylmethane], the activity at 15 µM with normal human melanocytes (setting [4]) is 32.2 ± 1.82%. The molecule further had an activity at 10 µM in the assay on normal human melanocytes (Table 3, addition amount 10 μM, control = 100%) of 42.3 ± 1.4%. For the same molecule, in assay [2], the “growth inhibitory effect” value is reported as “no growth inhibitory effect” and the MIC80 is > 100 µg/mL.

The molecule `OC(c1ccccc1)(c1ccccc1)c1ccccc1` [Triphenylmethanol] gave an activity at 7.5 µM with normal human melanocytes (Table 3, addition amount 7.5 μM, control = 100%) of 41.3 ± 2.8%. In addition, in the assay on normal human melanocytes (setting [4]), the activity at 15 µM is 31.6 ± 2.39%. In assay [2] (setting [3]), the “MIC80 Concentration” value was 100.0000 µg/mL (≈ 384 µM) and the MIC80 came out at 100 µg/mL (≈ 384 µM).

Take `NC(c1ccccc1)(c1ccccc1)c1ccccc1` [Triphenylmethylamine]: the activity at 12.5 µM with normal human melanocytes (Table 3, addition amount 12.5 μM, control = 100%) turned out to be 57.3 ± 1.6%. The activity at 20 µM in the assay with normal human melanocytes (setting [4]) came out at 23 ± 2.41%. Further, the “growth inhibitory effect” value in assay [2] is given as “no growth inhibitory effect”. In addition, the MIC80 in assay [2] (setting [3]) was > 100 µg/mL.
